Legend:
Format in all cases: functional
[1] = biological target: T1, Putative uncharacterized protein pk7 (Plasmodium falciparum, UniProt O96214); assay: Final concentrations were 1 uM ATP, 2 mM DTT, 20 mM MgCl2, 2 mM MnCl2, 0.01% BSA, and 6 ug/ml PK7, in a buffer of 20 mM Tris-HCl (pH 7.5). The enzyme itself was the only substrate present (since autophosphorylation occurs); 100 uM 1NA-PP1 was used as a control inhibitor. Incubation time was 3 hours.
T1 sequence (O96214 whole entry): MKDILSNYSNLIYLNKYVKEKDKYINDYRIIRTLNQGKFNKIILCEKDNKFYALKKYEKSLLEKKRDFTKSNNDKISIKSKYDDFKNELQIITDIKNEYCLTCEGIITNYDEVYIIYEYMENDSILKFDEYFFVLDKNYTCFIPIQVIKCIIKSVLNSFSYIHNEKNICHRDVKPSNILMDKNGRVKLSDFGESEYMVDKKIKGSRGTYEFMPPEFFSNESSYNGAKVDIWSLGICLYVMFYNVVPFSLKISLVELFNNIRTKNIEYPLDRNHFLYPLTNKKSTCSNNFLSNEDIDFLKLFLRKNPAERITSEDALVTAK

[2] = biological target: Calcium-dependent protein kinase 1 (Plasmodium falciparum, UniProt P62344); assay: MMV: CDPK1 Protein kinase inhibition assay using recombinant PfCDPK1, syntide 2 peptide substrate, ATP and KinaseGlo to measure % inhibition at 1 uM MMV box compound.
Proline--tRNA ligase = biological target: T2, Proline--tRNA ligase (Plasmodium falciparum (isolate 3D7), UniProt Q8I5R7); assay: MMV: ProRS recombinant Plasmodium falciparum Prolyl-tRNA-synthetase, assay with yeast tRNA, ATP, and proline and 3 uM MMV malaria box compound, assay read out with kinase glo as % inhibition.
T2 sequence (Q8I5R7 whole entry): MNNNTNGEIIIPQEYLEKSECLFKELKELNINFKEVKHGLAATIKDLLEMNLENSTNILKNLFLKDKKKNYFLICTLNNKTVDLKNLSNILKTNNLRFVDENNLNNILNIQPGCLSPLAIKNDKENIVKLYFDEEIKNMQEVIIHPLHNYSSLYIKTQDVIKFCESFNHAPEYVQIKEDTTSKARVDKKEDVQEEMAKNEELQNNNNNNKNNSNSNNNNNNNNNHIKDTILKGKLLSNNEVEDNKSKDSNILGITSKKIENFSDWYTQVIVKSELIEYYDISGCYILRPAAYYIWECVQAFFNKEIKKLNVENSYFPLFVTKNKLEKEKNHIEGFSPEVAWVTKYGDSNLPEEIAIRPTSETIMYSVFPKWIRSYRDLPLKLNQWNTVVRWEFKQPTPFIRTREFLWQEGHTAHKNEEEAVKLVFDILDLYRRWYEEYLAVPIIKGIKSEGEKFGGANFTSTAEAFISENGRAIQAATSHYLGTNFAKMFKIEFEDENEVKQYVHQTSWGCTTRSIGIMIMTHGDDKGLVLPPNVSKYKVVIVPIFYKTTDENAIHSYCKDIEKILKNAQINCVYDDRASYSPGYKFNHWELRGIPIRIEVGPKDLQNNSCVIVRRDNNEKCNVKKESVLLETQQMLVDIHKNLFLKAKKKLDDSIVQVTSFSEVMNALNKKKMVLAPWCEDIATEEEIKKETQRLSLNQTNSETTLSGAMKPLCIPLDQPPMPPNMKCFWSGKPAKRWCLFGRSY

[3] = biological target: T3, Calcium-dependent protein kinase 4 (Plasmodium falciparum (isolate 3D7), UniProt Q8IBS5); assay: MMV: CDPK4 Protein kinase inhibition assay using recombinant PfCDPK4, syntide2 peptide substrate, ATP and KinaseGlo to measure % inhibition at 1 uM MMV box compound.
T3 sequence (Q8IBS5 whole entry): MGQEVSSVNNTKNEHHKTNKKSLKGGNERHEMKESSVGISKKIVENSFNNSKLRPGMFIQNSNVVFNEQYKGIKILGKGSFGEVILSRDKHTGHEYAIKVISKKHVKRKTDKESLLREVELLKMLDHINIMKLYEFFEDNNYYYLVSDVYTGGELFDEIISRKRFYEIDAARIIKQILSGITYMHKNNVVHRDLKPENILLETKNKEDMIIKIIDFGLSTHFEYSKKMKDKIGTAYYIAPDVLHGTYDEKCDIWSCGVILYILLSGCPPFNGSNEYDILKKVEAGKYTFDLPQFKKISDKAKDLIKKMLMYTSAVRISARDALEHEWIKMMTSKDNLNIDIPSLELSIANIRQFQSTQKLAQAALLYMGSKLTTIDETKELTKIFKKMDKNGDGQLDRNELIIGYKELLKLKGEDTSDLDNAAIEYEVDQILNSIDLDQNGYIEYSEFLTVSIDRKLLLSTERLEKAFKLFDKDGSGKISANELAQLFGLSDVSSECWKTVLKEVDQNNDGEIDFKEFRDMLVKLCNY

[4] = biological target: T4, Cdk-related protein kinase 6 (Plasmodium falciparum, UniProt O77239); assay: Final concentrations were 1.5 uM ATP, 5 mM MnCl2, and 15 ug/ml PK6 in a buffer of 100 mM Tris-HCl (pH 7.5). 50 ug/mL MBP was provided as the substrate; 10 uM staurosporine was used as a control inhibitor. Incubation time was 3 hours and 40 minutes.The catalytic activity of each kinase was considered proportional to ATP consumed, as determined from measurements of residual [ATP] with the luciferase-based reagent Kinase-Glo (Promega) following incubation. Luminescence (proportional to residual [ATP]) was measured on the plate readers FLx800 (BioTek Instruments, Winooski, VT, USA) and MicroBeta2.
T4 sequence (O77239 whole entry): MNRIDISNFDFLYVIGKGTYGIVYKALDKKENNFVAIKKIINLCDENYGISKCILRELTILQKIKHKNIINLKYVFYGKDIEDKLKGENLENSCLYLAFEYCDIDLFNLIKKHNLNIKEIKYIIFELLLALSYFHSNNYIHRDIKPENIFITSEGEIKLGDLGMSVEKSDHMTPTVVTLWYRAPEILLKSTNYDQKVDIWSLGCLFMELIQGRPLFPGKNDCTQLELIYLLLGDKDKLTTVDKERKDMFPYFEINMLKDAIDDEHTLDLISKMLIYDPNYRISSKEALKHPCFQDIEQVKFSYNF

Lysine--tRNA ligase = Lysine--tRNA ligase (Plasmodium falciparum (isolate 3D7), UniProt Q8IDJ8); assay: MMV: KRS recombinant Plasmodium falciparum Lysyl-tRNA-synthetase, assay with yeast tRNA, ATP, and lysine and 3 uM MMV malaria box compound, assay read out with kinase glo as % inhibition.
[5] = biological target: T5, Mitogen-activated protein kinase (Plasmodium falciparum, UniProt Q25917); assay: Final concentrations were 1 uM ATP, 0.5 mM DTT, 1 mM MgCl2, 0.5 mg/mL BSA, and 10 ug/ml MAP2 in a buffer of 50 mM HEPES (pH 7.0). 0.5 mg/mL histone III-S served as the substrate (13); 100 uM AMP-PNP, an ATP analog, was used as a control inhibitor. Incubation time was 4 hours.
T5 sequence (Q25917 whole entry): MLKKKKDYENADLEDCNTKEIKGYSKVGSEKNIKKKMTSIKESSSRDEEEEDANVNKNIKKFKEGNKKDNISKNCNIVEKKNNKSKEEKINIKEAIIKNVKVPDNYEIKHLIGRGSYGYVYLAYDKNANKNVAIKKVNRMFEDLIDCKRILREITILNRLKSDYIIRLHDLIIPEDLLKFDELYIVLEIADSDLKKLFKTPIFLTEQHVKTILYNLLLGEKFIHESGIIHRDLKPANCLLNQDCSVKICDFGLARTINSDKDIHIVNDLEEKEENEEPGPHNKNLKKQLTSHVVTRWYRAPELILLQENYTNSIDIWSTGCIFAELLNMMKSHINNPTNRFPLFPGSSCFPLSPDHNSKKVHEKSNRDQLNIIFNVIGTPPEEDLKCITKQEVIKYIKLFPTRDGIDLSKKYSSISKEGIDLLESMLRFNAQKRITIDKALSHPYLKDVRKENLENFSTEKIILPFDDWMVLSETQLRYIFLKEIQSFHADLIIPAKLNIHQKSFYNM

Calcium-dependent protein kinase 1, sequence (P62344 whole entry): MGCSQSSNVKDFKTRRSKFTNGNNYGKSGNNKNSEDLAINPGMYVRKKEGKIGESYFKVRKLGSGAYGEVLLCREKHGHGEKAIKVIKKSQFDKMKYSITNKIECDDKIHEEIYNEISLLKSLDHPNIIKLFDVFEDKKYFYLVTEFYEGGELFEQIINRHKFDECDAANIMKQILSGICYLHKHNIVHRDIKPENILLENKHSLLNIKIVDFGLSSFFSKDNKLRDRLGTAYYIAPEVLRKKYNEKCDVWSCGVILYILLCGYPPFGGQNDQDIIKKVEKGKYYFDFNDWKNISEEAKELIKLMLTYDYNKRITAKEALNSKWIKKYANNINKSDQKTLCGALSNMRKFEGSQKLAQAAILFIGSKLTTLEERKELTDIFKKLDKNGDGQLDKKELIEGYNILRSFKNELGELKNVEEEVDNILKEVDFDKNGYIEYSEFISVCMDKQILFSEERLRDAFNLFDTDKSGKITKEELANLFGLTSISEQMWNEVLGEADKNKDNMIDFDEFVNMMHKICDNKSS
Lysine--tRNA ligase, sequence (Q8IDJ8 whole entry): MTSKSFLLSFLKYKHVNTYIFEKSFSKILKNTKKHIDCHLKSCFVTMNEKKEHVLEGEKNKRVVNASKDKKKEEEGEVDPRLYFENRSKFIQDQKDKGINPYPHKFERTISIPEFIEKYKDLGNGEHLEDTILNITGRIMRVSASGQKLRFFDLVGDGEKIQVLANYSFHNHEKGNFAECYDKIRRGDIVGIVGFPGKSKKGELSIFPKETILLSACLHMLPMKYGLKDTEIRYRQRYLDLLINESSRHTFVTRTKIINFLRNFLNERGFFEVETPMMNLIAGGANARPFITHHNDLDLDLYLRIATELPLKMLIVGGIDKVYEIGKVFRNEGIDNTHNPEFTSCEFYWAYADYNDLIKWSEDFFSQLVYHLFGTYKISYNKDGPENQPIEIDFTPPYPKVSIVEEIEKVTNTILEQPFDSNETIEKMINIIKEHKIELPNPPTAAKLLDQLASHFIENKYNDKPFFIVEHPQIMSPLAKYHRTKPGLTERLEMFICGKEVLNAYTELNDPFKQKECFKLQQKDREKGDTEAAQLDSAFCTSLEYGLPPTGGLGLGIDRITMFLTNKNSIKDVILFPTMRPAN

SMILES	IC50 [1] [nM]	IC50 [2] [nM]	IC50 (Proline--tRNA ligase) [nM]	IC50 [3] [nM]	IC50 [4] [nM]	IC50 (Lysine--tRNA ligase) [nM]	IC50 [5] [nM]
CN1CCN(c2ccc(Nc3c4ccccc4nc4ccccc34)cc2)CC1	> 1000	> 1000	> 2500	> 1000	> 1000	> 2500	> 1000
CCN(CC)CCNc1ncnc2c1[nH]c1ccc(Cl)cc12	> 1000	> 1000	> 2500	> 1000	> 1000	> 2500	> 1000
CCOC(=O)c1cnc2ccc(CC)cc2c1O	> 1000	> 1000	> 2500	> 1000	> 1000	> 2500	> 1000
CCN(CC)CCNc1ccnc2cc(Cl)ccc12	> 1000	> 1000	> 2500	> 1000	> 1000	> 2500	> 1000
CCN1CCN(Cc2ccc(NC(=O)c3cc4ccc5cccnc5c4[nH]3)cc2)CC1	> 1000	> 1000	> 2500	> 1000	> 1000	> 2500	> 1000
CCC(c1ccccc1)c1nn2c(-c3cccs3)nnc2s1 (configuration not stated)	> 1000	> 1000	> 2500	> 1000	> 1000	> 2500	> 1000
CC1CN(C(=O)c2sc3ccccc3c2Cl)CC(C)O1 (configuration not stated)	> 1000	> 1000	> 2500	> 1000	> 1000	> 2500	> 1000
CN(C)c1ccc(C=Cc2nc(=O)c3ccccc3o2)cc1	> 1000	> 1000	> 2500	> 1000	> 1000	> 2500	> 1000
OC(CNC1CCCCC1)Cn1c2ccccc2c2ccccc21 (configuration not stated)	> 1000	> 1000	> 2500	> 1000	> 1000	> 2500	> 1000
CCCN(CCC)CC(O)COc1ccccc1C(=O)Nc1ccccc1 (configuration not stated)	> 1000	> 1000	> 2500	> 1000	> 1000	> 2500	> 1000
CCOC(=O)c1c(C)n(-c2ccc(Cl)cc2)c2ccc(OC(=O)C=Cc3ccccc3)cc12	> 1000	> 1000	> 2500	> 1000	> 1000	> 2500	> 1000
C=CC12CCN(CC1)C(C(O)c1ccnc3ccc(OC)cc13)C2 (configuration not stated)	> 1000	> 1000	> 2500	> 1000	> 1000	> 2500	> 1000
Cc1ccc(-c2cc3nc4c(c(O)n3n2)CCCC4)cc1	> 1000	> 1000	> 2500	> 1000	> 1000	> 2500	> 1000
Cc1cc(C)c2c(c1)OCN(Cc1ccccc1Cl)C2	> 1000	> 1000	> 2500	> 1000	> 1000	> 2500	> 1000
COc1ccccc1NC1=C(N2CCCCC2)C(=O)c2ccccc2C1=O	> 1000	> 1000	> 2500	> 1000	> 1000	> 2500	> 1000
CCCc1cc(O)c2c3c(c(=O)oc2c1)CN(C)CC3	> 1000	> 1000	> 2500	> 1000	> 1000	> 2500	> 1000
Cc1cc(NC(=O)C2c3ccccc3C(=O)N(CC(C)C)C2c2cccs2)no1 (configuration not stated)	> 1000	> 1000	> 2500	> 1000	> 1000	> 2500	> 1000
COc1ccc2c(=O)cc(C(Cl)(Cl)Cl)oc2c1	> 1000	> 1000	> 2500	> 1000	> 1000	> 2500	> 1000
COc1ccc(-c2nc3cc(Cc4ccc5[nH]c(-c6ccc(OC)cc6)nc5c4)ccc3[nH]2)cc1	> 1000	> 1000	> 2500	> 1000	> 1000	> 2500	> 1000
Cc1ccc(N2C3c4ccccc4N(S(=O)(=O)c4ccc(C)cc4)C2c2ccccc2N3S(=O)(=O)c2ccc(C)cc2)cc1	> 1000	> 1000	> 2500	> 1000	> 1000	> 2500	> 1000
c1ccc(Cn2c(N=Nc3c(Nc4ccccc4)ccc4ccccc34)nc3ccccc32)cc1	> 1000	> 1000	> 2500	> 1000	> 1000	> 2500	> 1000

— ChEMBL document CHEMBL3301562, “MMV Box screening against Plasmodium falciparum protein kinases and aminoacyl tRNA synthetases”
